The text below walks through data of patent publication EP0278452A2, “2,4- and 2,5-Pyridine-dicarboxylic-acid derivatives, process for their preparation, their use and medicines based on these compounds” (HOECHST AKTIENGESELLSCHAFT, priority 1987, dated 1988).

The experiment has as its system Prolin- und Lysinhydroxylase. The experiment can be described thus: CCl4-induced liver injury (fibrosis) in rats: collagen markers after treatment with the compound. The class given is in vivo, Ratten. The following applies: rats given CCl4, then compound, Dosierung 2 x 25 mg. From the text:
Die Aktivität der Fibrogenase kann durch radioimmunologische Bestimmung des N-terminalen Propeptids des Kollagens Typ III oder der N- bzw. C-terminalen Quervernetzungsdomäne des Kollagens Typ IV (7s-Kollagen bzw. Typ-IV-Kollagen-NC₁) im Serum bestimmt werden.
Zu diesem Zweck wurden die Hydroxyprolin-, Prokollagen-III-Peptid-, 7s-Kollagen- und Typ-IV-Kollagen-NC₁-Konzentrationen in der Leber von • a) unbehandelten Ratten (Kontrolle) • b) Ratten, denen Tetrachlorkohlenstoff verabreicht wurde (CCl₄-Kontrolle) • c) Ratten, denen zunächst CCl₄ und anschließend eine erfindungsgemäße Verbindung verabreicht wurde gemessen (diese Testmethode wird beschrieben von Rouiller, C., experimental toxic injury of the liver; in The Liver, C. Rouiller, Vol. 2, S. 335-476, New York, Academic Press, 1964).
Die pharmakologische Wirksamkeit der erfindungsgemäßen Substanzen wurde in einer Versuchsreihe (s. Tabelle 1) untersucht. Dabei zeigte sich eine deutliche Hemmung der Prolin- und Lysinhydroxylase.

Where the note is “CCl4-Kontrolle 0.773, Kontrolle 0.289”, `COC(=O)C(C)(C)COC(=O)c1ccc(C(=O)OCC(C)(C)C(=O)OC)nc1` [compound 4, Pyridin-2,5-dicarbonsäure-bis(2-methoxycarbonyl-2,2-dimethylethyl)ester] displayed a Hydroxy-prolin of 0.482 µg/mg Leber. This molecule displayed a Prokollagen-III-Peptid (CCl4-Kontrolle 73.9, Kontrolle 11.1) of 37.2 ng/mL. Further, the Typ-IV-Kollagen-NC1 (CCl4-Kontrolle 168.4, Kontrolle 23.5) is 100.8 ng/mL. The molecule also had a 7s-Kollagen (CCl4-Kontrolle 308.7, Kontrolle 22.8) of 121.4 ng/mL.
